# Laboratory results as given in ChEMBL document CHEMBL3885861, “Open TG-GATES”.
# Species: Rattus norvegicus
# Test: Open TG-GATES - Regimen: Single
# Assay type: toxicity, organism-based, Sprague-Dawley
# Parameters: regimen Single, gender Male, age 6 weeks
# Conditions: in vivo, po, 100 mg/kg, route gavage, dose level Middle; for APTT / Bas / Eos / Fbg / Hb / Ht / Lym / MCH / MCHC / MCV / Mono / Neu / PT / Plat / RBC / Ret / WBC: tissue Blood; for KIDNEY_L / KIDNEY_R / KIDNEY_TOTAL: tissue Kidney; for LIVER: tissue Liver; for A/G / ALP / ALT / AST / BUN / CRE / Ca / Cl / DBIL / GLC / IP / K / LDH / Na / PL / RALB / TBIL / TC / TG / TP / gamma-GTP: tissue Plasma
smiles,measurement,setting,value
Cc1cccc(Nc2ccccc2C(=O)O)c1C [MEFENAMIC ACID],TERMINAL_BW,3 h,218.5 g
same,APTT,3 h,19.2 s
same,Bas,3 h,0%
same,Eos,3 h,0.8%
same,Fbg,3 h,218.2 mg/dL
same,Hb,3 h,13.3 g/dL
same,Ht,3 h,37.3%
same,Lym,3 h,80%
same,MCH,3 h,21.8 pg
same,MCHC,3 h,35.5%
same,MCV,3 h,61.4 fL
same,Mono,3 h,2.2%
same,Neu,3 h,15%
same,PT,3 h,12.2 s
same,Plat,3 h,114.3 x10_4/uL
same,RBC,3 h,608.6 x10_4/ul
same,Ret,3 h,7.4%
same,WBC,3 h,104.3 x10_2/uL
same,KIDNEY_L,3 h,1 g
same,KIDNEY_R,3 h,1 g
same,KIDNEY_TOTAL,3 h,1.9 g
same,LIVER,3 h,9.9 g
same,A/G,3 h,1.6
same,ALP,3 h,1058 IU/L
same,ALT,3 h,37.6 IU/L
same,AST,3 h,67.8 IU/L
same,BUN,3 h,12.4 mg/dL
same,CRE,3 h,0.4 mg/dL
same,Ca,3 h,10.7 mg/dL
same,Cl,3 h,103.4 meq/L
same,DBIL,3 h,0.074 mg/dL
same,GLC,3 h,196.8 mg/dL
same,IP,3 h,8.6 mg/dL
same,K,3 h,4.1 meq/L
same,LDH,3 h,184 IU/L
same,Na,3 h,140.8 meq/L
same,PL,3 h,141.4 mg/dL
same,RALB,3 h,3.4 g/dL
same,TBIL,3 h,0.1 mg/dL
same,TC,3 h,78.6 mg/dL
same,TG,3 h,43.4 mg/dL
same,TP,3 h,5.5 g/dL
same,gamma-GTP,3 h,1.6 IU/L
same,TERMINAL_BW,6 h,215.4 g
same,APTT,6 h,18.2 s
same,Bas,6 h,0%
same,Eos,6 h,1%
same,Fbg,6 h,225.6 mg/dL
same,Hb,6 h,13 g/dL
same,Ht,6 h,37.2%
same,Lym,6 h,76.2%
same,MCH,6 h,21.7 pg
same,MCHC,6 h,35.1%
same,MCV,6 h,61.8 fL
same,Mono,6 h,2.6%
same,Neu,6 h,18.6%
same,PT,6 h,12.6 s
same,Plat,6 h,108.7 x10_4/uL
same,RBC,6 h,602.4 x10_4/ul
same,Ret,6 h,7.6%
same,WBC,6 h,76.8 x10_2/uL
same,KIDNEY_L,6 h,1 g
same,KIDNEY_R,6 h,1 g
same,KIDNEY_TOTAL,6 h,2 g
same,LIVER,6 h,9.6 g
same,A/G,6 h,1.6
same,ALP,6 h,782.4 IU/L
same,ALT,6 h,36.8 IU/L
same,AST,6 h,64.2 IU/L
same,BUN,6 h,11 mg/dL
same,CRE,6 h,0.3 mg/dL
same,Ca,6 h,10.5 mg/dL
same,Cl,6 h,103 meq/L
same,DBIL,6 h,0.064 mg/dL
same,GLC,6 h,185.4 mg/dL
same,IP,6 h,9 mg/dL
same,K,6 h,4.1 meq/L
same,LDH,6 h,160.4 IU/L
same,Na,6 h,139.8 meq/L
same,PL,6 h,139.6 mg/dL
same,RALB,6 h,3.3 g/dL
same,TBIL,6 h,0.1 mg/dL
same,TC,6 h,77.6 mg/dL
same,TG,6 h,48.4 mg/dL
same,TP,6 h,5.4 g/dL
same,gamma-GTP,6 h,1.4 IU/L
same,TERMINAL_BW,9 h,211.6 g
same,APTT,9 h,17.9 s
same,Bas,9 h,0%
same,Eos,9 h,1%
same,Fbg,9 h,216.4 mg/dL
same,Hb,9 h,13.6 g/dL
same,Ht,9 h,38.1%
same,Lym,9 h,77.2%
same,MCH,9 h,22.3 pg
same,MCHC,9 h,35.8%
same,MCV,9 h,62.4 fL
same,Mono,9 h,2.2%
same,Neu,9 h,18.2%
same,PT,9 h,12.7 s
same,Plat,9 h,112.5 x10_4/uL
same,RBC,9 h,611 x10_4/ul
same,Ret,9 h,7.2%
same,WBC,9 h,77.1 x10_2/uL
same,KIDNEY_L,9 h,0.9 g
same,KIDNEY_R,9 h,0.9 g
same,KIDNEY_TOTAL,9 h,1.8 g
same,LIVER,9 h,8.6 g
same,A/G,9 h,1.6
same,ALP,9 h,955.2 IU/L
same,ALT,9 h,30.8 IU/L
same,AST,9 h,61.6 IU/L
same,BUN,9 h,12.2 mg/dL
same,CRE,9 h,0.4 mg/dL
same,Ca,9 h,10.4 mg/dL
same,Cl,9 h,103 meq/L
same,DBIL,9 h,0.06 mg/dL
same,GLC,9 h,196.2 mg/dL
same,IP,9 h,9.4 mg/dL
same,K,9 h,3.7 meq/L
same,LDH,9 h,184.6 IU/L
same,Na,9 h,140.2 meq/L
same,PL,9 h,127.8 mg/dL
same,RALB,9 h,3.4 g/dL
same,TBIL,9 h,0.1 mg/dL
same,TC,9 h,72.4 mg/dL
same,TG,9 h,29.6 mg/dL
same,TP,9 h,5.5 g/dL
same,gamma-GTP,9 h,1 IU/L
same,TERMINAL_BW,24 h,227 g
same,APTT,24 h,17.3 s
same,Bas,24 h,0%
same,Eos,24 h,1%
same,Fbg,24 h,209.2 mg/dL
same,Hb,24 h,13 g/dL
same,Ht,24 h,37.3%
same,Lym,24 h,72.6%
same,MCH,24 h,22.1 pg
same,MCHC,24 h,35%
same,MCV,24 h,63.2 fL
same,Mono,24 h,2.8%
same,Neu,24 h,21.2%
same,PT,24 h,12.1 s
same,Plat,24 h,119.7 x10_4/uL
same,RBC,24 h,590.4 x10_4/ul
same,Ret,24 h,7%
same,WBC,24 h,99.5 x10_2/uL
same,KIDNEY_L,24 h,1 g
same,KIDNEY_R,24 h,1.1 g
same,KIDNEY_TOTAL,24 h,2.1 g
same,LIVER,24 h,11 g
same,A/G,24 h,1.6
same,ALP,24 h,883 IU/L
same,ALT,24 h,39.2 IU/L
same,AST,24 h,67.2 IU/L
same,BUN,24 h,14.2 mg/dL
same,CRE,24 h,0.4 mg/dL
same,Ca,24 h,10.9 mg/dL
same,Cl,24 h,102.8 meq/L
same,DBIL,24 h,0.092 mg/dL
same,GLC,24 h,190.6 mg/dL
same,IP,24 h,7.5 mg/dL
same,K,24 h,4.3 meq/L
same,LDH,24 h,196.4 IU/L
same,Na,24 h,139.8 meq/L
same,PL,24 h,151.8 mg/dL
same,RALB,24 h,3.5 g/dL
same,TBIL,24 h,0.1 mg/dL
same,TC,24 h,81 mg/dL
same,TG,24 h,88.8 mg/dL
same,TP,24 h,5.6 g/dL
same,gamma-GTP,24 h,1.4 IU/L
